Data: US12628856B2, “Nutritional composition having lipophilic compounds with improved solubility and bioavailability” (Abbott Laboratories, priority 2013, dated 2026)

Columns and labels:
Type in all cases: physicochemical
[1] = Centrifugation/ultrafiltration analysis of lutein and MDG distribution (Example 60); details: centrifugation at 100,000×g
Procedure: A study was conducted to further investigate the distribution of lutein and MDG within the nutritional composition. Samples included MDG/lutein/water; MDG/lutein/NFDM/water; MDG/lutein/WPC/water; and MDG/water.
The premixes were provided as follows: in samples that contained lutein, lutein was heated for 2 h at 50° C. with shaking. […] In samples that contained protein, non-fat dried milk was added to water (50-60° C.) with agitation and allowed to hydrate for approximately 10 min.
The samples were prepared as follows: for solution 1, water was heated to 50-60° C., an lutein in GMO-40 blend and turrax (30 sec 10000 rpm) was added; for solution 2, NFDM was placed in water solution heated to 50-60° C., and lutein was added in GMO-40 blend and turrax (30 sec 10000 rpm); for solution 3, water was heated to 50-60° C., and GMO-40 blend and turrax (30 sec 10000 rpm) was added. The solutions are listed in the table below as X.1, wherein 1 is the solution.
Samples were formulated as detailed above, and then characterized by ultrafiltration with various membranes, as well as ultracentrifuged at various times and speed (e.g., 100,000×g, 4,500×g, and 1,000×g). The details of the different centrifugation/filtration method are listed below. […]

[2] = Distribution of lutein and MDG in cream, aqueous and pellet layers after 100,000×g (Example 58); details: 100,000×g for 1 hour; wt % of the nutritional composition
Procedure: A study was conducted to investigate the distribution of lutein and MDG within the nutritional compositions. Sample were prepared using homogenization at 150/20 bar, and then centrifuged at 100,000×g for 1 hour. The different layers (e.g., cream, aqueous, and pellet) were then analyzed for the presence of lutein and MDG.

[3] = Bound lipophile index (SEC peak area ratio 280 nm/214 nm); details: Example 35 model systems
Procedure: The size exclusion chromatography (SEC) system used in the following Examples is as follows: Column: Superdex Peptide 10/300 GL, GE Healthcare P/N 17-5176-01; Mobile Phase: 700 mL Milli-Q Plus water, 300 mL acetonitrile; 1.0 mL trifluoroacetic acid; Flow Rate: 0.4 mL/minute; Temperature: ambient (˜21° C.); Detection: UV light at 214 nm, 280 nm; visible light at 476 nm; Injection: 10 μL; Run Time: 70 minutes; Sample Preparation: dilute 0.6-1.1 g to 10 mL with Mobile Phase; Calibration: by 6 purified reference proteins, 14.2-160 kD.
The bound lipophile index is determined as follows: a non-specific indicator of lipophilic nutrients (including lutein and any combination of other oil soluble vitamins) in the high MW protein peak (described above). […]
A study was conducted to evaluate the effect of relative centrifugal force (RCF) on analyzing the high molecular weight lutein assembly in the aqueous phase. […] The compositions were then assessed for high molecular weight lutein assembly and the presence of protein >137 kD as done above, as well as bound lipophile index. Bound lipophile index, a relative marker for of lipophilic nutrients in the high molecular weight assembly, was determined as the peak ratio, 280 nm/214 nm for protein >137 kD.

bound lipophile index when choline was present [3] | SMILES | lutein in the aqueous phase ([1]; samples containing only lutein and MDG) | lutein in the aqueous phase ([1]; samples containing protein) | present in the aqueous phase following centrifugation [2]
 | CC1=C[C@H](O)CC(C)(C)[C@H]1/C=C/C(C)=C/C=C/C(C)=C/C=C/C=C(C)/C=C/C=C(C)/C=C/C1=C(C)C[C@@H](O)CC1(C)C [lutein] | negligible | only found in the aqueous phase of samples containing protein | approximately 4 wt %
decreased | C[N+](C)(C)CCO [choline] |  |  | 
